Like-named read-outs stand apart in the source and are kept apart here.

In the assay the target is T1, Human GPR120 (Homo sapiens, UniProt Q5NUL3).
T1 construct: Ga16 (promiscuous G protein) fusion partner; expressed in transfected cells
T1 sequence (Q5NUL3 with tags, fused parts or gaps): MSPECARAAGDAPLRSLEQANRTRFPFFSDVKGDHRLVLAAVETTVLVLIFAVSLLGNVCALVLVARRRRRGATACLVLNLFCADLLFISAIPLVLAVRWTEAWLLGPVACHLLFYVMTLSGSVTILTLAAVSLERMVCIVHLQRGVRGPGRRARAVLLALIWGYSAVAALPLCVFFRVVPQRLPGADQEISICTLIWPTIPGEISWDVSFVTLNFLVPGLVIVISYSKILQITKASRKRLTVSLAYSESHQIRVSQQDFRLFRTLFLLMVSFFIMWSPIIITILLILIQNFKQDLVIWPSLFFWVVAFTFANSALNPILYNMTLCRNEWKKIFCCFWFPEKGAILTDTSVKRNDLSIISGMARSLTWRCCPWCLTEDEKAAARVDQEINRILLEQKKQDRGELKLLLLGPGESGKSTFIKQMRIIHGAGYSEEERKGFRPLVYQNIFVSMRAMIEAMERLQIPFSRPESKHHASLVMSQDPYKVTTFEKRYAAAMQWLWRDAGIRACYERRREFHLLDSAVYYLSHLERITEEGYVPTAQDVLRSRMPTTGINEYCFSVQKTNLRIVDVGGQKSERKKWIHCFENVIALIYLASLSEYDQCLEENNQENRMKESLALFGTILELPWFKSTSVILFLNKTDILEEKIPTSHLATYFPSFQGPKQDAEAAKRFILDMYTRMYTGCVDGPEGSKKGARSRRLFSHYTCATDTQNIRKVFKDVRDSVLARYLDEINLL
The assay can be described thus: FLIPR assay: agonist-induced calcium mobilization in HEK293-GPR120-Ga16 cells. Type of assay: cell-based. As to conditions: for Emax: % enhancement of the test compound relative to a known compound, read-out: % Efficiency; for EC50: GPR120 activation, calcium mobilization, HEK293-GPR120-Ga16 cells. On the procedure: Human GPR120 stable cell-line was generated in HEK293 cells. GPR120 (Accession number BC101175) is fused to a promiscuous G protein, Ga16. The expression plasmid is transfected into HEK293 cells using Fugene6 following manufacturer's instruction. Stable cell-lines are generated following drug selection.
FLIPR (Fluorimetric Imaging Plate Reader, Molecular Devices) assays are performed to measure agonist-induced calcium mobilization in the GPR120-expressing cells. One day before the FLIPR assay, HEK293-GPR120-Ga16 cells are seeded into poly-D-lysine coated black-wall-clear bottom 384 well plates (Falcon) at 25,000 cells per well in 40 μl DMEM supplemented with 1% of FBS. The cells are incubated overnight at 37° C. in a humidified incubator. The medium is aspirated on the day of the FLIPR assay. The cells are incubated with 50 μl/well of the assay buffer (HBSS, 20 mM HEPES, 2.5 mM probenecid, pH7.4) containing Fluo-4 NM dye (Invitrogen cat# F36205) at 37° C. for 45 minutes, and then equilibrated at room temperature for 30 minutes. Compounds are dissolved in DMSO and diluted to desired concentrations with assay buffer. Fluorescent output is measured immediately following compound addition (12.5 μl/well) on the FLIPR machine.
An EC50 value was calculated using the change of fluorescent intensity from the reaction initiation. […] In some examples, compounds provided herein have EC50 values from 0.1 μM to 5 μM, while in other examples from 0.5 μM to 5 μM.
The EC50 value in those experiments is given as that concentration of the test compound in question that provoke a response halfway between the baseline and maximum responses. In certain examples compounds of Formula (I) have EC50 values from 0.001 μM to 5 μM. In other examples, compounds of Formula (I) have EC50 values from 0.001 μM to 4 μM. In other examples, compounds of Formula (I) have EC50 values from 0.001 μM to 3 μM. In other examples, compounds of Formula (I) have EC50 values from 0.001 μM to 2 μM. In other examples, compounds of Formula (I) have EC50 values from 0.001 μM to 1 μM. In other examples, compounds of Formula (I) have EC50 values from 0.001 μM to 0.5 μM. […] In other examples, compounds of Formula (I) have EC50 values from 0.001 μM to 0.1 μM.
The % efficiency in those experiments is given as that % enhancement of the test compound in question relative to a known compound. In certain examples compounds of Formula (I) have a % efficiency values from 50% to 150%. In other examples, compounds of Formula (I) have a % efficiency values from 55% to 150%. In other examples, compounds of Formula (I) have a % efficiency values from 60% to 150%. In other examples, compounds of Formula (I) have a % efficiency values from 65% to 150%. In other examples, compounds of Formula (I) have a % efficiency values from 70% to 150%. In other examples, compounds of Formula (I) have a % efficiency values from 75% to 150%. In other examples, compounds of Formula (I) have a % efficiency values from 80% to 150%. In other examples, compounds of Formula (I) have a % efficiency values from 85% to 150%. In other examples, compounds of Formula (I) have a % efficiency values from 90% to 150%. In other examples, compounds of Formula (I) have a % efficiency values from 95% to 150%. In other examples, compounds of Formula (I) have a % efficiency values from 100% to 150%.
A general note: Calcium flux is commonly read through the fluorescence of an indicator in the cells.

The term EC50 denotes the concentration at which the effect is half-maximal. Take `O=C(O)c1ccc(/N=c2\scc(-c3ccccc3)n2CC2CC2)cc1` [Compound 21, (Z)-4-(3-(cyclopropylmethyl)-4-phenylthiazol-2(3H)-ylideneamino)benzoic acid]: the Emax stood at 84.7%. For the same compound, the EC50 (read-out: EC50) was 446 nM. In addition, the half-maximal effective concentration (EC50) (read-out: EC50 Range) lay in the range of 250 to 500 nM.
In the case of `CCn1c(-c2cccc(F)c2)cs/c1=N\c1ccc(S(=O)(=O)O)cc1` [Compound 4, (Z)-4-(3-ethyl-4-(3-fluorophenyl)thiazol-2(3H)-ylideneamino)benzenesulfonic acid], the 50% effective concentration (EC50) (read-out: EC50 Range) fell in the range of 250 to 500 nM.
`CCn1c(-c2ccccc2)c(C)s/c1=N\c1ccc(S(=O)(=O)O)cc1` [Compound 3, (Z)-4-(3-ethyl-5-methyl-4-phenylthiazol-2(3H)-ylideneamino)benzenesulfonic acid]: the Emax was determined as 85.6%. Also, the EC50 (read-out: EC50) turned out to be 547 nM. The half-maximal effective concentration (EC50) (read-out: EC50 Range) fell in the range of 500 to 1000 nM.
On to `CCc1ccc(-c2cn(-c3ccc(Cl)c(C(=O)O)c3)nn2)cc1` [Compound 68], for which, under “read-out: EC50 Range”, the half-maximal effective concentration (EC50) is more than 5000 nM.
Turning to `CCn1c(-c2cc(O)ccc2Br)cs/c1=N\c1ccc(C(=O)O)cc1` [Compound 19, (Z)-4-(4-(2-bromo-5-hydroxyphenyl)-3-ethylthiazol-2(3H)-ylideneamino)benzoic acid], the Emax turned out to be 81.1%. In addition, the EC50 (read-out: EC50) is 628 nM. The EC50 (read-out: EC50 Range) was 500 to 1000 nM.
For the compound `CC(C)n1c(-c2ccccc2)cs/c1=N\c1ccc(C(=O)O)cc1` [Compound 17, (Z)-4-(3-isopropyl-4-phenylthiazol-2(3H)-ylideneamino)benzoic acid], the concentration giving a half-maximal response (EC50) (read-out: EC50 Range) lay in the range of 100 to 250 nM.
In the case of `O=C(O)c1cccc(-n2cc(-c3ccc(Br)cc3)nn2)c1` [Compound 63, 3-(4-(4-bromophenyl)-1H-1,2,3-triazol-1-yl)benzoic acid], where the note is “read-out: EC50 Range”, the EC50 was 1000 to 5000 nM.
Turning to `CCn1c(-c2c(Cl)cccc2Cl)cs/c1=N\c1ccc(C(=O)O)cc1` [Compound 38, (Z)-4-(4-(2,6-dichlorophenyl)-3-ethylthiazol-2(3H)-ylideneamino)benzoic acid], where the note is “read-out: EC50 Range”, the EC50 was 100 to 250 nM.
Regarding `CCn1c(-c2cccc(Cl)c2)cs/c1=N\c1ccc(S(=O)(=O)O)cc1` [Compound 31, (Z)-4-(4-(3-chlorophenyl)-3-ethylthiazol-2(3H)-ylideneamino)benzenesulfonic acid], the Emax turned out to be 114%. In addition, the EC50 (read-out: EC50) was determined as 78 nM. In addition, the half-maximal effective concentration (EC50) (read-out: EC50 Range) lay within 1 to 100 nM.
`CCn1c(-c2cccc(OCc3ccccc3)c2)cs/c1=N\c1ccc(C(=O)O)cc1` [Compound 26, (Z)-4-(4-(3-(benzyloxy)phenyl)-3-ethylthiazol-2(3H)-ylideneamino)benzoic acid]: the 50% effective concentration (EC50) (read-out: EC50 Range) was 500 to 1000 nM.
As to `CCn1c(-c2cccc(OC(F)(F)F)c2)cs/c1=N\c1ccc(C(=O)O)cc1` [Compound 13, (Z)-4-(3-ethyl-4-(3-(trifluoromethoxy)phenyl)thiazol-2(3H)-ylideneamino)benzoic acid], where the note is “read-out: EC50 Range”, the EC50 was in the range of 500 to 1000 nM.
Still for that read-out and setting: as for `CCn1c(-c2ccccc2)cs/c1=N\c1ccc(C(=O)O)c(F)c1` [Compound 14, (Z)-4-(3-ethyl-4-phenylthiazol-2(3H)-ylideneamino)-2-fluorobenzoic acid], the figure is 100 to 250 nM.
For the compound `CCn1c(-c2cc(Br)ccc2O)cs/c1=N\c1ccc(C(=O)O)cc1` [Compound 50, (Z)-4-(4-(5-bromo-2-hydroxyphenyl)-3-ethylthiazol-2(3H)-ylideneamino)benzoic acid], the concentration for a half-maximal effect (EC50) (read-out: EC50 Range) is 100 to 250 nM.
Consider `CCn1c(-c2ccccc2C(F)(F)F)cs/c1=N\c1ccc(C(=O)O)cc1` [Compound 11, (Z)-4-(3-ethyl-4-(2-(trifluoromethyl)phenyl)thiazol-2(3H)-ylideneamino)benzoic acid], for which the half-maximal effective concentration (EC50) (read-out: EC50 Range) is 100 to 250 nM.
In the case of `CCn1c(-c2ccccc2OC(F)(F)F)cs/c1=N\c1ccc(C(=O)O)cc1` [Compound 12, (Z)-4-(3-ethyl-4-(2-(trifluoromethoxy)phenyl)thiazol-2(3H)-ylideneamino)benzoic acid], the concentration giving a half-maximal response (EC50) (read-out: EC50 Range) lay in the range of 250 to 500 nM.
Regarding `CC(C)c1ccc(-n2cc(-c3cccc(C(=O)O)c3)nn2)cc1` [Compound 64, 3-(1-(4-isopropylphenyl)-1H-1,2,3-triazol-4-yl)benzoic acid], the Emax stood at 69%. Further, for the setting “read-out: EC50”, the EC50 worked out at 878 nM. Moreover, the EC50 (read-out: EC50 Range) is 500 to 1000 nM.
For `CCn1c(-c2ccccc2)cs/c1=N\c1ccc(S(=O)(=O)O)cc1` [Compound 37, (Z)-4-(3-ethyl-4-phenylthiazol-2(3H)-ylideneamino)benzenesulfonic acid], the EC50 (read-out: EC50 Range) was 100 to 250 nM.
In the case of `CCn1c(-c2cc(C(F)(F)F)cc(C(F)(F)F)c2)cs/c1=N\c1ccc(S(=O)(=O)O)cc1` [Compound 2], the Emax amounted to 102%. For the same compound, the EC50 (read-out: EC50) amounted to 396 nM. The half-maximal effective concentration (EC50) (read-out: EC50 Range) was 250 to 500 nM.
For the compound `CCn1c(-c2cccc(Br)c2)cs/c1=N\c1ccc(C(=O)O)cc1` [Compound 47, (Z)-4-(4-(3-bromophenyl)-3-ethylthiazol-2(3H)-ylideneamino)benzoic acid], under “read-out: EC50 Range”, the half-maximal effective concentration (EC50) lay within 100 to 250 nM.
Still for that read-out and setting: with `CCn1c(-c2ccccc2OC)cs/c1=N\c1ccc(C(=O)O)cc1` [Compound 32, (Z)-4-(3-ethyl-4-(2-methoxyphenyl)thiazol-2(3H)-ylideneamino)benzoic acid] the figure was 500 to 1000 nM.
As to `COc1cccc(-c2noc(-c3cccc(C(=O)O)c3)n2)c1` [Compound 53, 3-(3-(3-methoxyphenyl)-1,2,4-oxadiazol-5-yl)benzoic acid], the EC50 (read-out: EC50 Range) was in the range of 500 to 1000 nM.
